Results from a compilation of properties of binary mixtures (doi:10.1021/je300384g).

Assay: xn = mol fraction of the nth substance listed
Conditions: 101 kPa

CCCC[N+]1(C)CCCC1.N#C[N-]C#N + CC(C)O
speed of sound [m/s]
Conditions | 298.15 K | 313.15 K | 328.15 K
x2 = 0 | 1810 | 1773 | 1736
x2 = 0.0466 | – | 1761 | 1724
x2 = 0.0896 | 1789 | – | 1713
x2 = 0.1849 | 1761 | 1723 | 1685
x2 = 0.2967 | 1723 | 1684 | 1646
x2 = 0.4039 | 1676 | 1637 | 1598
x2 = 0.5056 | 1622 | – | 1543
x2 = 0.6018 | 1559 | 1518 | 1478
x2 = 0.6997 | 1483 | 1440 | 1398
x2 = 0.8066 | 1382 | – | 1293
x2 = 0.892 | – | 1240 | –
x2 = 0.9461 | – | 1170 | 1120

CCCCO + CCCC[N+]1(C)CCCC1.N#C[N-]C#N
x1 = 1
Conditions | speed of sound [m/s]
298.15 K | 1240
313.15 K | 1190
328.15 K | 1140

CC(C)O + CCCC[N+]1(C)CCCC1.N#C[N-]C#N
x1 = 1
Conditions | speed of sound [m/s]
313.15 K | 1088
328.15 K | 1034

CCCO + CCCC[N+]1(C)CCCC1.N#C[N-]C#N
x1 = 1
Conditions | speed of sound [m/s]
298.15 K | 1206
313.15 K | 1155
328.15 K | 1105

CCCC[N+]1(C)CCCC1.N#C[N-]C#N + CCCCO
speed of sound [m/s]
Conditions | 298.15 K | 313.15 K | 328.15 K
x2 = 0 | – | – | 1736
x2 = 0.0464 | 1799 | 1761 | 1724
x2 = 0.0945 | 1787 | 1749 | 1712
x2 = 0.1898 | 1759 | 1720 | –
x2 = 0.299 | 1720 | 1680 | 1642
x2 = 0.4012 | 1674 | 1635 | 1596
x2 = 0.4989 | 1624 | 1583 | 1544
x2 = 0.5996 | 1564 | 1522 | –
x2 = 0.6947 | 1500 | 1457 | –
x2 = 0.7995 | 1420 | – | 1333
x2 = 0.8965 | 1339 | 1293 | 1247
x2 = 0.9464 | 1295 | 1246 | 1199

CCCC[N+]1(C)CCCC1.N#C[N-]C#N + CCCO
speed of sound [m/s]
Conditions | 298.15 K | 313.15 K | 328.15 K
x2 = 0 | 1810 | 1773 | –
x2 = 0.0669 | 1796 | 1758 | 1722
x2 = 0.1894 | 1766 | 1728 | 1690
x2 = 0.2912 | – | 1695 | 1657
x2 = 0.3998 | 1693 | – | 1615
x2 = 0.514 | – | 1598 | –
x2 = 0.597 | 1590 | 1549 | 1509
x2 = 0.6944 | 1523 | 1480 | –
x2 = 0.8002 | 1434 | – | 1346
x2 = 0.894 | 1339 | 1292 | 1247
x2 = 0.9437 | 1281 | 1233 | 1186
